Source: ChEMBL document CHEMBL1811764, “Structure-activity studies of RNA-binding oxazolidinone derivatives” (Bioorg Med Chem Lett, 2011)

What was measured:
Nucleic Acid [1] = experiment: Binding affinity to Bacillus subtilis AM1A C11U antiterminator model RNA variant assessed as increase in fluorescence by FRET assay relative to control; format: nucleic-acid assay; set-up: concentration or dose not given beside the values
Nucleic Acid [2] = experiment: Binding affinity to Bacillus subtilis AM1A antiterminator model RNA assessed as increase in fluorescence at 10 uM by FRET assay relative to control; format: nucleic-acid assay

Structure (SMILES) | Activity (Nucleic Acid [1]) | Activity (Nucleic Acid [2])
O=C1N[C@H](CN2CCN(c3ccccc3)CC2)[C@@H](COC(=O)c2ccc(Cl)cc2)O1 | 22.8% | 29.1%
CN(C)c1cccc(C(=O)OC[C@H]2OC(=O)N[C@@H]2CN2CCN(c3ccccc3)CC2)c1 | 27.1% | 24.6%
O=C1N[C@H](CN2CCN(c3ccccc3)CC2)[C@@H](COC(=O)c2ccccc2)O1 | 18.6% | 14.8%
O=C1N[C@H](CN2CCN(c3ccccc3)CC2)[C@@H](COC(=O)c2cc(OCc3ccccc3)c(OCc3ccccc3)c(OCc3ccccc3)c2)O1 | 18.6% | 14.3%
CC(C)CC(=O)OC[C@H]1OC(=O)N[C@@H]1CN1CCN(c2ccccc2)CC1 | 14% | 9.5%
CCCCCCNC(=O)OC[C@H]1OC(=O)N[C@@H]1CN1CCN(c2ccccc2)CC1 | 23.7% | 17.4%
CC(C)(C)OC(=O)NCCCCC(=O)OC[C@H]1OC(=O)N[C@@H]1CN1CCN(c2ccccc2)CC1 | 27.7% | 29.4%
O=C(Cc1ccc(-c2ccccc2)cc1)OC[C@H]1OC(=O)N[C@@H]1CN1CCN(c2ccccc2)CC1 | 22.3% | 25.3%
O=C(CCCC1CCCCC1)OC[C@H]1OC(=O)N[C@@H]1CN1CCN(c2ccccc2)CC1 | 29% | 31.8%
COc1ccc(CC(=O)OC[C@H]2OC(=O)N[C@@H]2CN2CCN(c3ccccc3)CC2)cc1 | 18.8% | 13.7%
O=C(Nc1ccc(Cl)c(Cl)c1)OC[C@H]1OC(=O)N[C@@H]1CN1CCN(c2ccccc2)CC1 | 14.7% | 8.9%
CCCC(=O)OC[C@H]1OC(=O)N[C@@H]1CN1CCN(c2ccccc2)CC1 | 19.7% | 10.1%
O=C1N[C@H](CN2CCN(c3ccccc3)CC2)[C@@H](COC(=O)C2CCCCC2)O1 | 20.7% | 19.5%
CCCCNC(=O)OC[C@H]1OC(=O)N[C@@H]1CN1CCN(c2ccccc2)CC1 | 14% | 10.5%
O=C1N[C@H](CN2CCN(c3ccccc3)CC2)[C@@H](COC(=O)c2ccccc2F)O1 | 20.4% | 18.5%
O=C1N[C@H](CN2CCN(c3ccccc3)CC2)[C@@H](COC(=O)c2c(Cl)cccc2Cl)O1 | 16.2% | 15.3%
CCCNC(=O)OC[C@H]1OC(=O)N[C@@H]1CN1CCN(c2ccccc2)CC1 | 9.6% | 10.3%
O=C(CCCCCc1ccccc1)OC[C@H]1OC(=O)N[C@@H]1CN1CCN(c2ccccc2)CC1 | 30.9% | 32.6%
O=C1N[C@H](CN2CCN(c3ccccc3)CC2)[C@@H](COC(=O)c2ccco2)O1 | 14.7% | 6.4%
CCCCCC(=O)OC[C@H]1OC(=O)N[C@@H]1CN1CCN(c2ccccc2)CC1 | 21% | 15.5%
CCc1ccc(NC(=O)OC[C@H]2OC(=O)N[C@@H]2CN2CCN(c3ccccc3)CC2)cc1 | 19.1% | 18.3%
O=C(CC1CC2CCC1C2)OC[C@H]1OC(=O)N[C@@H]1CN1CCN(c2ccccc2)CC1 (stereo partly specified) | 27.4% | 29.5%
N#Cc1ccccc1C(=O)OC[C@H]1OC(=O)N[C@@H]1CN1CCN(c2ccccc2)CC1 | 16.7% | 7.3%
O=C(Nc1cccc([N+](=O)[O-])c1)OC[C@H]1OC(=O)N[C@@H]1CN1CCN(c2ccccc2)CC1 | 0.2% | -1.1%
Cc1cccc(C(C)(C)C)c1NC(=O)OC[C@H]1OC(=O)N[C@@H]1CN1CCN(c2ccccc2)CC1 | 15.4% | 14.8%
O=C(Cc1ccc(Cl)c(Cl)c1)OC[C@H]1OC(=O)N[C@@H]1CN1CCN(c2ccccc2)CC1 | 28.9% | 29.1%
CCCCCCCC(=O)OC[C@H]1OC(=O)N[C@@H]1CN1CCN(c2ccccc2)CC1 | 25.4% | 18.1%

Structure (SMILES) | Activity (Nucleic Acid [1]) | Activity (Nucleic Acid [2])
COc1cccc(CC(=O)OC[C@H]2OC(=O)N[C@@H]2CN2CCN(c3ccccc3)CC2)c1 | 19.6% | 18.9%
O=C1N[C@H](CN2CCN(c3ccccc3)CC2)[C@@H](COC(=O)c2ccc([N+](=O)[O-])cc2)O1 | 15.2% | 13.1%
Cc1ccc(C(=O)OC[C@H]2OC(=O)N[C@@H]2CN2CCN(c3ccccc3)CC2)cc1 | 27.5% | 27.4%
COc1ccc(NC(=O)OC[C@H]2OC(=O)N[C@@H]2CN2CCN(c3ccccc3)CC2)cc1 | 7.7% | 7.8%
Cc1cccc(NC(=O)OC[C@H]2OC(=O)N[C@@H]2CN2CCN(c3ccccc3)CC2)c1 | 26.7% | 16.8%
O=C1N[C@H](CN2CCN(c3ccccc3)CC2)[C@@H](COC(=O)c2ccccc2Cl)O1 | 28.8% | 30.4%
O=C1N[C@H](CN2CCN(c3ccccc3)CC2)[C@@H](COC(=O)Oc2ccccc2)O1 | 21.3% | 12.4%
O=C(Cc1ccc([N+](=O)[O-])cc1)OC[C@H]1OC(=O)N[C@@H]1CN1CCN(c2ccccc2)CC1 | 16.5% | 9.1%
CC(C)CCC(=O)OC[C@H]1OC(=O)N[C@@H]1CN1CCN(c2ccccc2)CC1 | 20.2% | 15%
O=C(NCc1ccccc1)OC[C@H]1OC(=O)N[C@@H]1CN1CCN(c2ccccc2)CC1 | 11.7% | 6.1%
CC(C)(C)OC(=O)N[C@@H](C(=O)OC[C@H]1OC(=O)N[C@@H]1CN1CCN(c2ccccc2)CC1)c1ccccc1 | 42.6% | 39.6%
CCCCCc1ccc(NC(=O)OC[C@H]2OC(=O)N[C@@H]2CN2CCN(c3ccccc3)CC2)cc1 | 11.1% | 10.6%
CC(=O)c1ccc(NC(=O)OC[C@H]2OC(=O)N[C@@H]2CN2CCN(c3ccccc3)CC2)cc1 | 13.4% | 7.7%
CC(C)(C)NC(=O)OC[C@H]1OC(=O)N[C@@H]1CN1CCN(c2ccccc2)CC1 | 8.7% | 8.9%
O=C(Nc1ccc([N+](=O)[O-])cc1)OC[C@H]1OC(=O)N[C@@H]1CN1CCN(c2ccccc2)CC1 | -4.9% | -1.8%
O=C1N[C@H](CN2CCN(c3ccccc3)CC2)[C@@H](COC(=O)c2ccccc2Oc2ccccc2)O1 | 26.5% | 30.8%
O=C1N[C@H](CN2CCN(c3ccccc3)CC2)[C@@H](COC(=O)c2ccccc2I)O1 | 22.4% | 28.6%
O=C(COc1ccccc1)OC[C@H]1OC(=O)N[C@@H]1CN1CCN(c2ccccc2)CC1 | 9.4% | 9.5%
COc1cccc(C(=O)OC[C@H]2OC(=O)N[C@@H]2CN2CCN(c3ccccc3)CC2)c1 | 24.7% | 23.8%
CC(C)(C)OC(=O)N[C@H](C(=O)OC[C@H]1OC(=O)N[C@@H]1CN1CCN(c2ccccc2)CC1)c1ccccc1 | 19.4% | 26.7%
O=C(CCc1ccccc1)OC[C@H]1OC(=O)N[C@@H]1CN1CCN(c2ccccc2)CC1 | 26.1% | 20.6%
CC(C)(C)C(=O)OC[C@H]1OC(=O)N[C@@H]1CN1CCN(c2ccccc2)CC1 | 13.2% | 7.1%
Cc1c(C(=O)OC[C@H]2OC(=O)N[C@@H]2CN2CCN(c3ccccc3)CC2)cccc1[N+](=O)[O-] | 24.5% | 23.3%
CC(C)=CCCC(C)CC(=O)OC[C@H]1OC(=O)N[C@@H]1CN1CCN(c2ccccc2)CC1 (stereo partly specified) | 42.4% | 38.9%
O=C(Cc1ccccc1)OC[C@H]1OC(=O)N[C@@H]1CN1CCN(c2ccccc2)CC1 | 15.9% | 8.5%
O=C(Nc1ccccc1)OC[C@H]1OC(=O)N[C@@H]1CN1CCN(c2ccccc2)CC1 | 11.2% | 8.4%
